Results as given in patent US12398101B2, “Herbicidal 2-azaspiro[3-5]nonane compounds” (SYNGENTA CROP PROTECTION AG, priority 2018, dated 2025).

Legend:
Assay type in all cases: in vivo
[1] = tested on: Panicum miliaceum (PANMI); experiment: Prior art comparison, post-emergence, representative weed; conditions: for PANMI (percentage damage): post-emergence
wheat = experiment: Prior art comparison, post-emergence, crop plants; conditions: for Wheat (percentage damage): post-emergence
Avena fatua (AVEFA) [2] = experiment: Glasshouse herbicide test, post-emergence application; conditions: 250 g/h, evaluated after 13 days
Procedure: (§1) Seeds of a variety of test species are sown in standard soil in pots (Lolium perenne (LOLPE), Setaria faberi (SETFA), Echinochloa crus-galli (ECHCG), Avena fatua (AVEFA)). After cultivation for one day (pre-emergence) or after 8 days cultivation (post-emergence) under controlled conditions in a glasshouse (at 24/16° C., day/night; 14 hours light; 65% humidity), the plants are sprayed with an aqueous spray solution derived from the formulation of the technical active ingredient in acetone/water (50:50) solution containing 0.5% Tween 20 (polyoxyethelyene sorbitan monolaurate, CAS RN 9005-64-5). Compounds are applied at 250 g/h. The test plants are then grown in a glasshouse under controlled conditions in a glasshouse (at 24/16° C., day/night; 14 hours light; 65% humidity) and watered twice daily. After 13 days for pre and post-emergence, the test is evaluated for the percentage damage caused to the plant. The biological activities are shown in the following table on a five point scale (5=80-100%; 4=60-79%; 3=40-59%; 2=20-39%; 1=0-19%).

Lolium perenne (LOLPE) [3] = experiment: as above; conditions: 250 g/h, evaluated after 13 days
Procedure: as §1

Setaria faberi (SETFA) [4] = experiment: as above; conditions: 250 g/h, evaluated after 13 days
Procedure: as §1

[5] = tested on: Echinochloa crus-galli (ECHCG); experiment: as above; conditions: 250 g/h, evaluated after 13 days
Procedure: as §1

barley = experiment: Prior art comparison, post-emergence, crop plants
Avena fatua (AVEFA) [6] = experiment: Glasshouse herbicide test, pre-emergence application; conditions: 250 g/h, evaluated after 13 days
Procedure: as §1

Lolium perenne (LOLPE) [7] = experiment: as above; conditions: 250 g/h, evaluated after 13 days
Procedure: as §1

Setaria faberi (SETFA) [8] = experiment: as above; conditions: 250 g/h, evaluated after 13 days
Procedure: as §1

[9] = tested on: Echinochloa crus-galli (ECHCG); experiment: as above; conditions: 250 g/h, evaluated after 13 days
Procedure: as §1

| Compound | PANMI (percentage damage) ([1]; Rate 60) | PANMI (percentage damage) ([1]; Rate 125) | overall weed control ([1]; summary of Table B3) | Wheat (percentage damage) (wheat; Rate 60) | Wheat (percentage damage) (wheat; Rate 60 + CQC (safener cloquintocet-mexyl at 50 g/ha)) | Wheat (percentage damage) (wheat; Rate 125) | crop safety vis-à-vis prior art compound C1 (wheat; wheat and barley, summary of Table B3) | percentage damage caused to the plant, five point scale, AVEFA (Avena fatua (AVEFA) [2]) | percentage damage caused to the plant, five point scale, LOLPE (Lolium perenne (LOLPE) [3]) | percentage damage caused to the plant, five point scale, SETFA (Setaria faberi (SETFA) [4]) | percentage damage caused to the plant, five point scale, ECHCG [5] | Barley (percentage damage) (barley; Rate 60) | Barley (percentage damage) (barley; Rate 125) | percentage damage caused to the plant, five point scale, AVEFA (Avena fatua (AVEFA) [6]) | percentage damage caused to the plant, five point scale, LOLPE (Lolium perenne (LOLPE) [7]) | percentage damage caused to the plant, five point scale, SETFA (Setaria faberi (SETFA) [8]) | percentage damage caused to the plant, five point scale, ECHCG [9] |
| --- | --- | --- | --- | --- | --- | --- | --- | --- | --- | --- | --- | --- | --- | --- | --- | --- | --- |
| CC#Cc1cc(C)c(C2C(=O)CC3(CC2=O)CN(C(C)=O)C3)c(C)c1 [Compound 1.001, 2-acetyl-7-(2,6-dimethyl-4-prop-1-ynyl-phenyl)-2-azaspiro[3.5]nonane-6,8-dione] | 100 | 100 | good overall weed control | 0 | 0 | 0 | significantly improved crop safety | 5 (5=80-100%) | 5 (5=80-100%) | 5 (5=80-100%) | 5 (5=80-100%) | 0 | 0 | 5 (5=80-100%) | 5 (5=80-100%) | 5 (5=80-100%) | 2 (2=20-39%) |
| CC#Cc1cc(C)c(C2=C(OC(=O)OC)CC3(CC2=O)CN(C(C)=O)C3)c(C)c1 [Compound 2.001, 2-acetyl-7-(2,6-dimethyl-4-prop-1-ynyl-phenyl)-6-oxo-2-azaspiro[3.5]non-7-en-8-yl] methyl carbonate] | – | – | – | – | – | – | – | 5 (5=80-100%) | 5 (5=80-100%) | 5 (5=80-100%) | 5 (5=80-100%) | – | – | 5 (5=80-100%) | 5 (5=80-100%) | 5 (5=80-100%) | 5 (5=80-100%) |
| CC#Cc1cc(C)c(C2C(=O)CC3(CC2=O)CN(C(=O)NC(C)(C)C)C3)c(C)c1 [Compound 1.006] | – | – | – | – | – | – | – | 5 (5=80-100%) | 5 (5=80-100%) | 5 (5=80-100%) | 5 (5=80-100%) | – | – | 2 (2=20-39%) | 5 (5=80-100%) | 5 (5=80-100%) | 5 (5=80-100%) |
| CC#Cc1cc(C)c(C2C(=O)CC3(CC2=O)CN(C(=O)C2CC2)C3)c(C)c1 [Compound 1.008, 2-(cyclopropanecarbonyl)-7-(2,6-dimethyl-4-prop-1-ynyl-phenyl)-2-azaspiro[3.5]nonane-6,8-dione] | – | – | – | – | – | – | – | 5 (5=80-100%) | 5 (5=80-100%) | 5 (5=80-100%) | 5 (5=80-100%) | – | – | 5 (5=80-100%) | 5 (5=80-100%) | 5 (5=80-100%) | 5 (5=80-100%) |
| CC#Cc1cc(C)c(C2C(=O)CC3(CC2=O)CN(C(=O)NC(=O)c2ccccn2)C3)c(OC)c1 [Compound 1.022] | – | – | – | – | – | – | – | 5 (5=80-100%) | 5 (5=80-100%) | 5 (5=80-100%) | 5 (5=80-100%) | – | – | 2 (2=20-39%) | 3 (3=40-59%) | 5 (5=80-100%) | 4 (4=60-79%) |
| CC#Cc1cc(Cl)c(C2C(=O)CC3(CC2=O)CN(C(=O)C2CC2)C3)c(OC)c1 [Compound 1.196] | – | – | – | – | – | – | – | 5 (5=80-100%) | 5 (5=80-100%) | 5 (5=80-100%) | 5 (5=80-100%) | – | – | 5 (5=80-100%) | 5 (5=80-100%) | 5 (5=80-100%) | 5 (5=80-100%) |
